{"source": "patent EP2722048B1", "about": "“Iron bisglycinate chelate for use in treating anaemia” (Laboratori Baldacci S.p.A., priority 2012, dated 2014)", "key": {"[1]": {"system": "patients before the hip arthroplasty operation", "assay": "Test 2: treatment for 10 days after taking 350 ml blood before hip arthroplasty, haematic parameters", "format": "in vivo", "details": "individual patients, 'Average' row = mean", "experimental": "For about 10 days, before the hip arthroplasty operation, blood is usually taken from the patients (350 ml) so as to have available, if necessary, a quantity of blood that is sufficient for an autologous transfusion.\n10 days after the blood is removed, the haematic parameters of the various patients are assessed, the intervention is performed and then the treatment with iron bisglycinate chelate continues for another 30 days after surgery."}, "[2]": {"system": "reticulocytes of the anaemic patient", "assay": "Test 3: cytofluorometric analysis of reticulocytes in blood samples", "format": "in vivo", "details": "for RET_IMM: immature reticulocytes: limits 0.00-0.50; for RETH: reticulocytes with high RNA content, highly immature: limits 0.0-10.0; for RETM: reticulocytes with average RNA content, immature on average: limits 0.0-40.0; for IRF: Immature Reticulocyte Function: limits 0.000-999.000; for MRV: Mean Reticulocyte Volume: limits 0-9999; for CRC: Corrected Reticulocyte Count: limits 0.75-2.30; for MFI: Mean Fluorescence Intensity: limits 5.0-30.0; for RhC/C: reticulocyte haemoglobin content: limits 28.9-33.9; for RETL: reticulocytes without RNA, poorly immature (or mature): limits 65.0-97.0", "experimental": "In order to be able to quantify the increase in reticulocytes, cytofluorometry analyses were conducted on samples of blood taken from the patient both before the treatment with iron bisglycinate chelate (Table 3) and after 20 days of treatment (Table 4).\nThe cytofluorometric analysis (fluorescence flow cytometry CFM) is conducted here as an assessment of the fluorescence obtained with the step of a laser beam of a sample of cells to be examined; in any case, further conventional techniques can be used for the purpose of the present invention."}, "[3]": {"details": "different values of pH of the gastrointestinal tract; cited from earlier work"}, "[4]": {"details": "compared with mineral salts, for example iron sulphate; cited from earlier work"}, "[5]": {"system": "patients who had to undergo surgery and who suffered from slight sideropenic anaemia", "details": "t=0, before treatment, individual patients, 'Average' = mean", "procedure": "An experimental study was conducted on patients who had to undergo surgery and who suffered from slight sideropenic anaemia.\nThe aim of the treatment with iron salts was to restore and/or increase the haemoglobin level before surgery in such a manner as to minimise morbidity and/or mortality after surgery.\n5 patients were treated with 2 effervescent tablets (prepared as in example 1) per day of iron bisglycinate chelate for 30 days, equal to 28 mg of iron ion per day and 5 patients were treated with one tablet per day of iron sulphate equal to 105 mg of iron ion.\nHeavy bleeding surgery took place 10 days after the start of treatment with the iron derivative, i.e. both with the iron bisglycinate chelate and with iron sulphate and the treatment with said iron derivative continued for the 20 days following surgery."}, "[6]": {"system": "patients before the hip arthroplasty operation", "assay": "Test 2: treatment for 10 days after taking 350 ml blood before hip arthroplasty, haematic parameters", "format": "in vivo", "details": "administration of iron sulphate; data in the applicant's possession"}, "[7]": {"details": "t=20, after 20 days of treatment"}}, "note": "Values joined by “and” are separate entries in the source; they are usually repeats but may differ in a detail not shown here. Equal values may be shown once."}
{"smiles": "NCC(=O)[O-].NCC(=O)[O-].[Fe+2]", "note": "[Iron bisglycinate chelate]", "values": [{"measurement": "Haemoglobin", "setting": "[1]; t=0, start of treatment after taking 350 ml blood", "value": "12.5 g/100ml and 13.2 g/100ml (2×) and 12.9 g/100ml (2×) and 13.3 g/100ml and 12.7 g/100ml"}, {"measurement": "% Reticulocytes", "setting": "[1]; t=0", "value": "1.1% (3×) and 0.6% and 2.1% and 1.4% and 0.8%"}, {"measurement": "Ferritin", "setting": "[1]; t=0", "value": "97 ng/mL and 132 ng/mL and 315 ng/mL and 146 ng/mL and 43 ng/mL and 53 ng/mL and 67 ng/mL"}, {"measurement": "Sideraemia", "setting": "[1]; t=0", "value": "76 µg/100ml and 67 µg/100ml and 58 µg/100ml and 112 µg/100ml and 75 µg/100ml and 87 µg/100ml"}, {"measurement": "% Reticulocytes", "setting": "[1]; t=10days, 2 tablets a day", "value": "1.5% and 0.9% and 16% and 23% and 1.2% and 25% and 1.7%"}, {"measurement": "Ferritin", "setting": "[1]; t=10days, 2 tablets a day", "value": "103 ng/mL and 72 ng/mL and 237 ng/mL and 95 ng/mL and 25 ng/mL and 34 ng/mL and 67 ng/mL"}, {"measurement": "Haemoglobin", "setting": "[1]; t=10days, 2 tablets a day", "value": "11.8 g/100ml (2×) and 12.7 g/100ml and 12.2 g/100ml and 12.8 g/100ml and 12.9 g/100ml and 12.1 g/100ml"}, {"measurement": "Sideraemia", "setting": "[1]; t=10days, 2 tablets a day", "value": "58 µg/100ml and 120 µg/100ml and 80 µg/100ml and 62 µg/100ml and 65 µg/100ml and 84 µg/100ml and 69 µg/100ml"}, {"measurement": "increase in the percentage of immature reticulocytes (RET_IMM)", "setting": "[2]; after 20 days of treatment versus before the treatment", "value": 75, "unit": "%"}, {"measurement": "RET_IMM: immature reticulocytes", "setting": "[2]; t=0, before treatment", "value": 0.08, "unit": "%"}, {"measurement": "RETH: reticulocytes with high RNA content, highly immature", "setting": "[2]; t=0, before treatment", "value": 1.8, "unit": "%"}, {"measurement": "RETM: reticulocytes with average RNA content, immature on average", "setting": "[2]; t=0, before treatment", "value": 9.8, "unit": "%"}, {"measurement": "IRF: Immature Reticulocyte Function", "setting": "[2]; t=0, before treatment", "value": 0.156}, {"measurement": "MRV: Mean Reticulocyte Volume", "setting": "[2]; t=0, before treatment", "value": 86, "unit": "µm^3"}, {"measurement": "CRC: Corrected Reticulocyte Count", "setting": "[2]; t=0, before treatment", "value": 1.56, "unit": "%"}, {"measurement": "MFI: Mean Fluorescence Intensity", "setting": "[2]; t=0, before treatment", "value": 15.1, "unit": "%"}, {"measurement": "RhC/C: reticulocyte haemoglobin content", "setting": "[2]; t=0, before treatment", "value": 28.1, "unit": "pg"}, {"measurement": "RETL: reticulocytes without RNA, poorly immature (or mature)", "setting": "[2]; t=0, before treatment", "value": 88.6, "unit": "%"}, {"measurement": "RET_IMM: immature reticulocytes", "setting": "[2]; [7]", "value": 0.14, "unit": "%"}, {"measurement": "RETH: reticulocytes with high RNA content, highly immature", "setting": "[2]; [7]", "value": 15.4, "unit": "%"}, {"measurement": "RETM: reticulocytes with average RNA content, immature on average", "setting": "[2]; [7]", "value": 32.3, "unit": "%"}, {"measurement": "IRF: Immature Reticulocyte Function", "setting": "[2]; [7]", "value": 0.534}, {"measurement": "MRV: Mean Reticulocyte Volume", "setting": "[2]; [7]", "value": 100, "unit": "µm^3"}, {"measurement": "CRC: Corrected Reticulocyte Count", "setting": "[2]; [7]", "value": 1.87, "unit": "%"}, {"measurement": "MFI: Mean Fluorescence Intensity", "setting": "[2]; [7]", "value": 29.8, "unit": "%"}, {"measurement": "RhC/C: reticulocyte haemoglobin content", "setting": "[2]; [7]", "value": 29.4, "unit": "pg"}, {"measurement": "RETL: reticulocytes without RNA, poorly immature (or mature)", "setting": "[2]; [7]", "value": 52.3, "unit": "%"}, {"measurement": "stability of the bond (hydrolysis)", "setting": "[3]", "value": "does not hydrolyse"}, {"measurement": "bioavailability", "setting": "[4]", "value": "greater bioavailabilty than mineral salts"}]}
{"smiles": "O=S(=O)([O-])[O-].[Fe+2]", "note": "[Iron sulphate, reference compound]", "values": [{"measurement": "Iron", "setting": "[5]", "value": "110 µg/100ml and 85 µg/100ml"}, {"measurement": "Haemoglobin", "setting": "[5]; bisglycinate 28 mg iron ion/day, sulphate 105 mg iron ion/day", "value": "12.5 g/100ml and 11.6 g/100ml"}, {"measurement": "average reduction of the haemoglobin after taking 350 ml", "setting": "[6]", "value": "1.5 g of Hb"}]}
